Activity calls are given as the source filed them. The calls are words filed in the database; no cut-off is given here.
What was measured:
[1] = system: MDA-MB-231; assay: Cytotoxicity against human MDA-MB-231 cells assessed as reduction in cell viability after 72 hrs by MTT assay; type: functional, cell-based; details: MDA-MB-231, 72 h
[2] = system: MCF7; assay: Cytotoxicity against human MCF7 cells assessed as reduction in cell viability after 72 hrs by MTT assay; type: functional, cell-based; details: MCF7, 72 h
[3] = system: PC-3; assay: Cytotoxicity against human PC3 cells assessed as reduction in cell viability after 72 hrs by MTT assay; type: functional, cell-based; details: PC-3, 72 h
[4] = system: HGC-27; assay: Cytotoxicity against human HGC27 cells assessed as reduction in cell viability after 72 hrs by MTT assay; type: functional, cell-based; details: HGC-27, 72 h
[5] = system: MGC-803; assay: Cytotoxicity against human MGC803 cells assessed as reduction in cell viability after 72 hrs by MTT assay; type: functional, cell-based; details: MGC-803, 72 h
[6] = system: MDA-MB-231; assay: Antiproliferative activity against human MDA-MB-231 cells assessed as reduction in cell viability after 24 to 72 hrs by MTT assay; type: functional, cell-based
[7] = system: MCF7; assay: Antiproliferative activity against human MCF7 cells assessed as reduction in cell viability after 24 to 72 hrs by MTT assay; type: functional, cell-based
[8] = system: MCF7; assay: Inhibition of colony formation in human MCF7 cells at 9 uM after 7 days by crystal violet staining based microscopic analysis; type: functional, cell-based
[9] = system: MDA-MB-231; assay: Cell cycle arrest in human MDA-MB-231 cells assessed as accumulation at S phase at 3 uM after 24 hrs by propidium iodide/RNase A staining-based flow cytometric analysis (reference value: 23.07%); type: functional
[10] = system: MDA-MB-231; assay: Cell cycle arrest in human MDA-MB-231 cells assessed as accumulation at G2 phase at 6 uM after 24 hrs by propidium iodide/RNase A staining-based flow cytometric analysis (reference value: 27.76%); type: functional
[11] = system: MDA-MB-231; assay: Cell cycle arrest in human MDA-MB-231 cells assessed as accumulation at G2 phase at 12 uM after 24 hrs by propidium iodide/RNase A staining-based flow cytometric analysis (reference value: 27.76%); type: functional
[12] = system: MCF7; assay: Cell cycle arrest in human MCF7 cells assessed as accumulation at G1 phase at 3 uM after 24 hrs by propidium iodide/RNase A staining-based flow cytometric analysis (reference value: 52.21%); type: functional
[13] = system: MCF7; assay: Cell cycle arrest in human MCF7 cells assessed as accumulation at G2 phase at 6 uM after 24 hrs by propidium iodide/RNase A staining-based flow cytometric analysis (reference value: 30.62%); type: functional
[14] = system: MCF7; assay: Cell cycle arrest in human MCF7 cells assessed as accumulation at S phase at 6 uM after 24 hrs by propidium iodide/RNase A staining-based flow cytometric analysis (reference value: 17.17%); type: functional
[15] = system: MCF7; assay: Cell cycle arrest in human MCF7 cells assessed as accumulation at S phase at 12 uM after 24 hrs by propidium iodide/RNase A staining-based flow cytometric analysis (reference value: 17.17%); type: functional
[16] = system: MDA-MB-231; assay: Induction of apoptosis in human MDA-MB-231 cells assessed as increase in nuclear lysis up to 8 uM after 48 hrs by DAPI staining-based fluorescence microscopic method; type: functional, cell-based
[17] = system: MCF7; assay: Induction of apoptosis in human MCF7 cells assessed as increase in nuclear lysis up to 8 uM after 48 hrs by DAPI staining-based fluorescence microscopic method; type: functional, cell-based
[18] = system: MDA-MB-231; assay: Induction of apoptosis in human MDA-MB-231 cells assessed as viable cells at 4 uM after 48 hrs by Annexin-V-FITC/propidium iodide staining based flow cytometry (reference value: 92.1%); type: functional; details: MDA-MB-231, 48 h, read-out: Activity
[19] = system: MDA-MB-231; assay: Induction of apoptosis in human MDA-MB-231 cells assessed as early apoptotic cells at 4 uM after 48 hrs by Annexin-V-FITC/propidium iodide staining based flow cytometry (reference value: 4.33%); type: functional
[20] = system: MDA-MB-231; assay: Induction of apoptosis in human MDA-MB-231 cells assessed as necrotic cells at 4 uM after 48 hrs by Annexin-V-FITC/propidium iodide staining based flow cytometry (reference value: 1.21%); type: functional
[21] = system: MDA-MB-231; assay: Induction of apoptosis in human MDA-MB-231 cells assessed as viable cells at 6 uM after 48 hrs by Annexin-V-FITC/propidium iodide staining based flow cytometry (reference value: 92.1%); type: functional; details: MDA-MB-231, 48 h, read-out: Activity
[22] = system: MDA-MB-231; assay: Induction of apoptosis in human MDA-MB-231 cells assessed as necrotic cells at 6 uM after 48 hrs by Annexin-V-FITC/propidium iodide staining based flow cytometry (reference value: 1.21%); type: functional
[23] = system: MCF7; assay: Induction of apoptosis in human MCF7 cells assessed as viable cells at 2 uM after 48 hrs by Annexin-V-FITC/propidium iodide staining based flow cytometry (reference value: 91.1%); type: functional; details: MCF7, 48 h, read-out: Activity
[24] = system: MCF7; assay: Induction of apoptosis in human MCF7 cells assessed as early apoptotic cells at 2 uM after 48 hrs by Annexin-V-FITC/propidium iodide staining based flow cytometry (reference value: 3.05%); type: functional
[25] = system: MCF7; assay: Induction of apoptosis in human MCF7 cells assessed as late apoptotic cells at 2 uM after 48 hrs by Annexin-V-FITC/propidium iodide staining based flow cytometry (reference value: 4.28%); type: functional
[26] = system: MCF7; assay: Induction of apoptosis in human MCF7 cells assessed as early apoptotic cells at 4 uM after 48 hrs by Annexin-V-FITC/propidium iodide staining based flow cytometry (reference value: 3.05%); type: functional
[27] = system: MCF7; assay: Induction of apoptosis in human MCF7 cells assessed as viable cells at 6 uM after 48 hrs by Annexin-V-FITC/propidium iodide staining based flow cytometry (reference value: 91.1%); type: functional; details: MCF7, 48 h, read-out: Activity
[28] = system: MCF7; assay: Induction of apoptosis in human MCF7 cells assessed as increase in Bax expression levels at 3 to 12 uM after 48 hrs by Western blot analysis; type: functional, cell-based
[29] = system: MDA-MB-231; assay: Induction of apoptosis in human MDA-MB-231 cells assessed as increase in ROS generation up to 8 uM after 48 hrs by DHE dye-based fluorescence microscopic analysis; type: functional, cell-based
[30] = system: MCF7; assay: Induction of apoptosis in human MCF7 cells assessed as increase in ROS generation up to 8 uM after 48 hrs by DHE dye-based fluorescence microscopic analysis; type: functional, cell-based
[31] = target: Epidermal growth factor receptor (Homo sapiens) (UniProt P00533); assay: Inhibition of EGFR phosphorylation at Y992 residues in human MDA-MB-231 cells after 8 hrs by Western blot analysis; type: cell-based
Epidermal growth factor receptor (Homo sapiens), sequence (P00533 whole entry): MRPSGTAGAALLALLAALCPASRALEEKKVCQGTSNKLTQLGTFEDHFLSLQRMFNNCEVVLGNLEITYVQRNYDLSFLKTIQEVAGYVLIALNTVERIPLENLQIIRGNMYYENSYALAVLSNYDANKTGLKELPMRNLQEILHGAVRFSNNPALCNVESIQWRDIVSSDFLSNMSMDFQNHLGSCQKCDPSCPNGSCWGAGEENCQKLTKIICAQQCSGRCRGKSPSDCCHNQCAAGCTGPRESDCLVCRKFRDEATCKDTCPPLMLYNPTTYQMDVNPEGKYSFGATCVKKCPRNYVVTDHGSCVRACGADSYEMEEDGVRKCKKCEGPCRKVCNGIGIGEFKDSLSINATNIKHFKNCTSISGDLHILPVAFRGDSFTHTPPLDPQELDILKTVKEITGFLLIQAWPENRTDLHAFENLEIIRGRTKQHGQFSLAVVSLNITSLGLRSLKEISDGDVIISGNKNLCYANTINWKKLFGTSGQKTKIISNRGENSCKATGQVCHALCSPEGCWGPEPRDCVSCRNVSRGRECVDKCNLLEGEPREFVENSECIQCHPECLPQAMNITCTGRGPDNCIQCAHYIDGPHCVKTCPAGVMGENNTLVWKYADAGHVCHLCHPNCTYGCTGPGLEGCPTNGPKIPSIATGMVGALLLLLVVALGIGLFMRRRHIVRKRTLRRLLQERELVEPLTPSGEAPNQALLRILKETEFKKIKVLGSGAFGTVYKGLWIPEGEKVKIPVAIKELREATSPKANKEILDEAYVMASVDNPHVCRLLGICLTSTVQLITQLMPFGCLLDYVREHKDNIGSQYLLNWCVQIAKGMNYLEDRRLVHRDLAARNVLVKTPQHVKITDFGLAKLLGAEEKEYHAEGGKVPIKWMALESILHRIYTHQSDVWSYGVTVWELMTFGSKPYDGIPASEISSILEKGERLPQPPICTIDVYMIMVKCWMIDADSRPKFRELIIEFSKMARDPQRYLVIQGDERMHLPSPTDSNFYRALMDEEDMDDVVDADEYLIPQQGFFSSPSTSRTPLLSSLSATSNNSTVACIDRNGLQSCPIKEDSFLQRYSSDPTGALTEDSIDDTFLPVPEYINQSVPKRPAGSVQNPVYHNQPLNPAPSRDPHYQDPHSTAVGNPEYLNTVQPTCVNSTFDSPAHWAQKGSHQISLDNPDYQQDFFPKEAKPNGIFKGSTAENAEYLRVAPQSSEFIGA

[32] = target: Epidermal growth factor receptor (Homo sapiens) (UniProt P00533); assay: Inhibition of EGFR in human MDA-MB-231 cells assessed as reduction in phosphorylated AKT expression after 8 hrs by Western blot analysis; type: cell-based
[33] = target: Epidermal growth factor receptor (Homo sapiens) (UniProt P00533); assay: Inhibition of EGFR in human MCF7 cells assessed as reduction in phosphorylated AKT expression after 8 hrs by Western blot analysis; type: cell-based
[34] = system: MDA-MB-231; assay: Effect on total PI3K protein level in human MDA-MB-231 cells up to 12 uM after 8 hrs by Western blot analysis; type: ADME, cell-based; details: mda-mb-231, 8 h
[35] = system: MCF7; assay: Effect on total PI3K protein level in human MCF7 cells up to 12 uM after 8 hrs by Western blot analysis; type: ADME, cell-based; details: mcf7, 8 h
[36] = system: MCF7; assay: Effect on total AKT protein level in human MCF7 cells up to 12 uM after 8 hrs by Western blot analysis; type: ADME, cell-based; details: mcf7, 8 h
[37] = target: Epidermal growth factor receptor (Homo sapiens) (UniProt P00533); assay: Inhibition of EGFR phosphorylation at Y1045 residues in human MCF7 cells after 8 hrs by Western blot analysis; type: cell-based

With `FC(F)(F)c1ccc(CSc2nc(Nc3ccc(C(F)(F)F)cc3)c3ccccc3n2)cc1` the IC50 [1] was 5.46 µM, the IC50 [2] was 5.1 µM and the IC50 [3] was 7.88 µM. For the same compound, the IC50 [4] was 7.56 µM, the IC50 [5] was 6.17 µM and the Activity [6] was “Dose-dependent effect”. The Activity [7] was “Dose-dependent effect”, the “growth inhibition (GI)” value [8] was “Active” and the Activity [9] was 18.96%. It also gave an Activity [10] of 21.98%, an Activity [11] of 11.69% and an Activity [12] of 59.18%. The Activity [13] was 15.43%, the Activity [14] was 19.52% and the Activity [15] was 10.65%. For the same compound, the Activity [16] was “Active”, the Activity [17] was “Active” and the viability at 4 µM [18] was 71.1%. The Activity [19] was 10.6%, the Activity [20] was 3.06% and the viability at 6 µM [21] was 66.5%. The Activity [22] was 2.49%, the viability at 2 µM [23] was 81.1% and the Activity [24] was 11.4%. For the same compound, the Activity [25] was 4.26%, the Activity [26] was 15% and the viability at 6 µM [27] was 70.5%. For the same compound, the Activity [28] was “Active”, the Activity [29] was “Active” and the Activity [30] was “Active”. The inhibition [31] was “Dose-dependent effect”, the inhibition [32] was “Dose-dependent effect” and the inhibition [33] was “Dose-dependent effect”. For the same compound, the Activity [34] was “Non-Toxic”, the Activity [35] was “Non-Toxic” and the Activity [36] was “Non-Toxic”. For the same compound, the inhibition [37] was “Dose-dependent effect”.
